Measured values reported in patent publication US12692238B2, “Substituted pyridazinone herbicides” (FMC CORPORATION, priority 2020, dated 2026).
Where two headings read alike, the source gives them in different places.

Assays:
Format in all cases: in vivo
[1] = test system: blackgrass (Alopecurus myosuroides); test: Test A postemergence, blackgrass; conditions: Alopecurus myosuroides, post-emergence, 240 h, 10 days, read-out: Plant response rating, Blackgrass; for pest or weed control at 31 g/ha: 31 g ai/ha; for pest or weed control at 125 g/ha: 125 g ai/ha
In short: (§1)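 Greenhouse herbicide screen: seeded pots sprayed on soil (preemergence) or seedlings at one- to two-leaf stage, 2 to 10 cm (postemergence). Evaluation 10 days later by eye against controls; 100 means complete control, 0 no effect.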

[2] = test system: corn (Zea mays); test: Test A postemergence, corn; conditions: Zea mays, post-emergence, 240 h, 10 days; for Corn plant response rating (crop injury, 0 = no effect, 100 = complete kill) at 31 g/ha: 31 g ai/ha; for Corn plant response rating (crop injury, 0 = no effect, 100 = complete kill) at 125 g/ha: 125 g ai/ha
In short: as §1

[3] = test system: wheat (Triticum aestivum); test: Test A postemergence, wheat; conditions: Triticum aestivum, post-emergence, 240 h, 10 days, read-out: Plant response rating, Wheat; for plant injury at 31 g/ha: 31 g ai/ha, postemergence, 0 to 100 scale (0 no effect, 100 complete control); for plant injury at 125 g/ha: Postemergence, 125 g ai/ha, 0 to 100 scale
In short: as §1

[4] = test system: ragweed (common ragweed, Ambrosia artemisiifolia); test: Test A preemergence, ragweed; conditions: Ambrosia artemisiifolia, pre-emergence, 240 h, 0 to 100 scale, 10 days, read-out: Plant response rating, Ragweed; for pest or weed control at 31 g/ha: 31 g ai/ha; for pest or weed control at 125 g/ha: 125 g ai/ha
In short: as §1

[5] = test system: blackgrass (Alopecurus myosuroides); test: Test A preemergence, blackgrass; conditions: 0 to 100 scale, 10 days
Excerpt: (§2) Seeds of plant species selected from barnyardgrass (Echinochloa crus-galli), blackgrass (Alopecurus myosuroides), corn (Zea mays), foxtail, giant (giant foxtail, Setaria faberi), foxtail, green (green foxtail, Setaria viridis), goosegrass (Eleusine indica), kochia (Bassia scoparia), oat, wild (wild oat, Avena fatua), palmer amaranth (pigweed, palmer, Amaranthus palmeri), redroot pigweed (Amaranthus retroflexus), ragweed (common ragweed, Ambrosia artemisiifolia), ryegrass, Italian (Italian ryegrass, Lolium multiflorum), and soybean (Glycine max) were planted into a blend of loam soil and sand and treated preemergence with a directed soil spray using test chemicals formulated in a non-phytotoxic solvent mixture which included a surfactant.
(§3) At the same time, plants selected from these crop and weed species and also wheat (Triticum aestivum), galium (catchweed bedstraw, Galium aparine) and horseweed (Erigeron canadensis) were planted in pots containing the same blend of loam soil and sand and treated with postemergence applications of test chemicals formulated in the same manner. Plants ranged in height from 2 to 10 cm and were in the one- to two-leaf stage for the postemergence treatment. Treated plants and untreated controls were maintained in a greenhouse for 10 days, after which time all treated plants were compared to untreated controls and visually evaluated for injury. Plant response ratings, summarized in Table A, are based on a 0 to 100 scale where 0 is no effect and 100 is complete control. A dash (-) response means no test result.

[6] = test system: corn (Zea mays); test: Test A preemergence, corn; conditions: 0 to 100 scale, 10 days
Excerpt: as §2, §3

[7] = test system: goosegrass (Eleusine indica); test: Test A preemergence, goosegrass; conditions: 0 to 100 scale, 10 days
Excerpt: as §2, §3

[8] = test system: oat, wild (wild oat, Avena fatua); test: Test A preemergence, oat, wild; conditions: 0 to 100 scale, 10 days
Excerpt: as §2, §3

[9] = test system: palmer amaranth (pigweed, palmer, Amaranthus palmeri); test: Test A preemergence, palmer amaranth; conditions: 0 to 100 scale, 10 days
Excerpt: as §2, §3

[10] = test system: soybean (Glycine max); test: Test A preemergence, soybean; conditions: 0 to 100 scale, 10 days
Excerpt: as §2, §3

[11] = test system: goosegrass (Eleusine indica); test: Test A postemergence, goosegrass; conditions: 10 days
Excerpt: as §2, §3

[12] = test system: oat, wild (wild oat, Avena fatua); test: Test A postemergence, oat, wild; conditions: 10 days
Excerpt: as §2, §3

[13] = test system: palmer amaranth (pigweed, palmer, Amaranthus palmeri); test: Test A postemergence, palmer amaranth; conditions: 10 days
Excerpt: as §2, §3

[14] = test system: soybean (Glycine max); test: Test A postemergence, soybean; conditions: 10 days
Excerpt: as §2, §3

[15] = test system: horseweed (Erigeron canadensis); test: Test A postemergence, horseweed; conditions: 10 days
Excerpt: as §2, §3

[16] = test system: wheat (Triticum aestivum); test: Test A preemergence, wheat; conditions: 125 g ai/ha, 0 to 100 scale, 10 days
[17] = test system: foxtail, green (green foxtail, Setaria viridis); test: Test A preemergence, foxtail, green; conditions: 0 to 100 scale, 10 days
Excerpt: as §2, §3

[18] = test system: foxtail, green (green foxtail, Setaria viridis); test: Test A postemergence, foxtail, green; conditions: 10 days
Excerpt: as §2, §3

[19] = postemergence, 0 to 100 scale (0 no effect, 100 complete control)
[20] = 31 g ai/ha, postemergence, 0 to 100 scale (0 no effect, 100 complete control)
[21] = Postemergence, 125 g ai/ha, 0 to 100 scale

## CC(=O)OCOc1c(Cl)nn(C)c(=O)c1-c1c2ccccc2c(Cl)c2ccccc12 [Compound 11, 5-[(acetyloxy)methoxy]-6-chloro-4-(10-chloro-9-anthracenyl)-2-methyl-3(2H)-pyridazinone]
[1]; Postemergence, 0 to 100 scale
  pest or weed control at 31 g/ha: 40%
  pest or weed control at 125 g/ha: 10%
[2]; Postemergence, 0 to 100 scale
  Corn plant response rating (crop injury, 0 = no effect, 100 = complete kill) at 31 g/ha: 0%
  Corn plant response rating (crop injury, 0 = no effect, 100 = complete kill) at 125 g/ha: 10%
[3]
  plant injury at 31 g/ha: 0%
  plant injury at 125 g/ha: 0%

## CC(=O)OCOc1c(Cl)nn(C)c(=O)c1-c1c2ccccc2cc2ccccc12 [Compound 10, 5-[(acetyloxy)methoxy]-4-(9-anthracenyl)-6-chloro-2-methyl-3(2H)-pyridazinone]
[4]
  pest or weed control at 31 g/ha: 40%
  pest or weed control at 125 g/ha: 40%
[1]; Postemergence, 0 to 100 scale
  pest or weed control at 31 g/ha: 30%
  pest or weed control at 125 g/ha: 0%
[2]; Postemergence, 0 to 100 scale
  Corn plant response rating (crop injury, 0 = no effect, 100 = complete kill) at 31 g/ha: 10%
  Corn plant response rating (crop injury, 0 = no effect, 100 = complete kill) at 125 g/ha: 20%
[3]
  plant injury at 31 g/ha: 0%
  plant injury at 125 g/ha: 0%

## CC(=O)OCOc1c(C)nn(C)c(=O)c1-c1c2cc(C)ccc2cc2ccc(F)cc12 [Compound 24, 5-[(acetyloxy)methoxy]-4-(2-fluoro-7-methyl-9-anthracenyl)-2,6-dimethyl-3(2H)-pyridazinone]
[4]
  pest or weed control at 31 g/ha: 90%
  pest or weed control at 125 g/ha: 90%
[1]; [19]
  pest or weed control at 31 g/ha: 0%
[1]; Postemergence, 0 to 100 scale
  pest or weed control at 125 g/ha: 20%
[2]; [19]
  Corn plant response rating (crop injury, 0 = no effect, 100 = complete kill) at 31 g/ha: 10%
[2]; Postemergence, 0 to 100 scale
  Corn plant response rating (crop injury, 0 = no effect, 100 = complete kill) at 125 g/ha: 20%
[3]
  plant injury at 31 g/ha: 0%
  plant injury at 125 g/ha: 0%

## CC(=O)OCOc1c(Cl)nn(C)c(=O)c1-c1c(C)ccc2ccc(C)cc12 [Compound 3, 5-[(Acetyloxy)methoxy]-6-chloro-4-(2,7-dimethyl-1-naphthalenyl)-2-methyl-3(2H)-pyridazinone]
[4]
  pest or weed control at 31 g/ha: 90%
  pest or weed control at 125 g/ha: 90%
[1]; Postemergence, 0 to 100 scale
  pest or weed control at 31 g/ha: 10%
  pest or weed control at 125 g/ha: 30%
[2]; Postemergence, 0 to 100 scale
  Corn plant response rating (crop injury, 0 = no effect, 100 = complete kill) at 31 g/ha: 0%
  Corn plant response rating (crop injury, 0 = no effect, 100 = complete kill) at 125 g/ha: 20%
[3]
  plant injury at 31 g/ha: 0%
  plant injury at 125 g/ha: 20%

## COC(=O)OCOc1c(Cl)nn(C)c(=O)c1-c1c2cc(C)ccc2cc2ccc(C)cc12 [Compound 8, [[3-chloro-5-(2,7-dimethyl-9-anthracenyl)-1,6-dihydro-1-methyl-6-oxo-4-pyridazinyl]oxy]methyl methyl carbonate]
[5]; 31 g ai/ha
  Plant response rating, Blackgrass: 0
[5]; 125 g ai/ha
  Plant response rating, Blackgrass: 0
[6]; 31 g ai/ha
  Plant response rating, Corn: 0
[6]; 125 g ai/ha
  Plant response rating, Corn: 60
[7]; 31 g ai/ha
  Plant response rating, Goosegrass: 0
[7]; 125 g ai/ha
  Plant response rating, Goosegrass: 0
[8]; 31 g ai/ha
  Plant response rating, Oat, Wild: 0
[8]; 125 g ai/ha
  Plant response rating, Oat, Wild: 0
[9]; 31 g ai/ha
  Plant response rating, Pigweed, Palmer: 100
[9]; 125 g ai/ha
  Plant response rating, Pigweed, Palmer: 100
[4]
  pest or weed control at 31 g/ha: 40%
  pest or weed control at 125 g/ha: 100%
[10]; 31 g ai/ha
  Plant response rating, Soybean: 0
[10]; 125 g ai/ha
  Plant response rating, Soybean: 0
[1]; Postemergence, 0 to 100 scale
  pest or weed control at 31 g/ha: 0%
  pest or weed control at 125 g/ha: 0%
[2]; Postemergence, 0 to 100 scale
  Corn plant response rating (crop injury, 0 = no effect, 100 = complete kill) at 31 g/ha: 0%
  Corn plant response rating (crop injury, 0 = no effect, 100 = complete kill) at 125 g/ha: 20%
[11]; [20]
  Plant response rating, Goosegrass: 0
[11]; [21]
  Plant response rating, Goosegrass: 0
[12]; [20]
  Plant response rating, Oat, Wild: 0
[12]; [21]
  Plant response rating, Oat, Wild: 10
[13]; [20]
  Plant response rating, Pigweed, Palmer: 70
[13]; [21]
  Plant response rating, Pigweed, Palmer: 100
[14]; [20]
  Plant response rating, Soybean: 40
[14]; [21]
  Plant response rating, Soybean: 60
[3]
  plant injury at 31 g/ha: 0%
  plant injury at 125 g/ha: 0%
[15]; [20]
  Plant response rating, Horseweed: 100
[15]; [21]
  Plant response rating, Horseweed: 100
[16]
  Plant response rating, Wheat: 0

## CC(=O)OCOc1c(C)nn(C)c(=O)c1-c1c(Br)sc2ccc(F)cc12 [Compound 2, 5-[(acetyloxy)methoxy]-4-(2-bromo-5-fluorobenzo[b]thien-3-yl)-2,6-dimethyl-3(2H)-pyridazinone]
[4]
  pest or weed control at 31 g/ha: 70%
  pest or weed control at 125 g/ha: 90%
[1]; Postemergence, 0 to 100 scale
  pest or weed control at 31 g/ha: 30%
  pest or weed control at 125 g/ha: 30%
[2]; Postemergence, 0 to 100 scale
  Corn plant response rating (crop injury, 0 = no effect, 100 = complete kill) at 31 g/ha: 0%
  Corn plant response rating (crop injury, 0 = no effect, 100 = complete kill) at 125 g/ha: 30%
[3]
  plant injury at 31 g/ha: 0%
  plant injury at 125 g/ha: 40%

## CC(=O)OCOc1c(Cl)nn(C)c(=O)c1-c1c(C)sc2cccc(Cl)c12 [Compound 1, 5-[(acetyloxy)methoxy]-6-chloro-4-(4-chloro-2-methylbenzo[b]thien-3-yl)-2-methyl-3(2H)-pyridazinone]
[17]; 31 g ai/ha
  Plant response rating, Foxtail, Green: 0
[17]; 125 g ai/ha
  Plant response rating, Foxtail, Green: 10
[4]
  pest or weed control at 31 g/ha: 10%
  pest or weed control at 125 g/ha: 20%
[1]; Postemergence, 0 to 100 scale
  pest or weed control at 31 g/ha: 0%
  pest or weed control at 125 g/ha: 0%
[2]; Postemergence, 0 to 100 scale
  Corn plant response rating (crop injury, 0 = no effect, 100 = complete kill) at 31 g/ha: 0%
  Corn plant response rating (crop injury, 0 = no effect, 100 = complete kill) at 125 g/ha: 0%
[18]; [20]
  Plant response rating, Foxtail, Green: 0
[18]; [21]
  Plant response rating, Foxtail, Green: 10
[3]
  plant injury at 31 g/ha: 0%
  plant injury at 125 g/ha: 0%

## CC(=O)OCOc1c(Cl)nn(C)c(=O)c1-c1c(C)ccc2ccccc12 [Compound 5, 5-[(acetyloxy)methoxy]-6-chloro-2-methyl-4-(2-methyl-1-naphthalenyl)-3(2H)-pyridazinone]
[17]; 31 g ai/ha
  Plant response rating, Foxtail, Green: 50
[17]; 125 g ai/ha
  Plant response rating, Foxtail, Green: 90
[4]
  pest or weed control at 31 g/ha: 100%
  pest or weed control at 125 g/ha: 100%
[1]; Postemergence, 0 to 100 scale
  pest or weed control at 31 g/ha: 20%
  pest or weed control at 125 g/ha: 50%
[2]; Postemergence, 0 to 100 scale
  Corn plant response rating (crop injury, 0 = no effect, 100 = complete kill) at 31 g/ha: 0%
  Corn plant response rating (crop injury, 0 = no effect, 100 = complete kill) at 125 g/ha: 10%
[18]; [20]
  Plant response rating, Foxtail, Green: 40
[18]; [21]
  Plant response rating, Foxtail, Green: 80
[3]
  plant injury at 31 g/ha: 10%
  plant injury at 125 g/ha: 30%
